Target: T1, GPR84 (Homo sapiens, UniProt Q9NQS5)
Assay: not given
Conditions: in words; cited from earlier work
Target sequence in this assay (Q9NQS5 whole entry, species assumed): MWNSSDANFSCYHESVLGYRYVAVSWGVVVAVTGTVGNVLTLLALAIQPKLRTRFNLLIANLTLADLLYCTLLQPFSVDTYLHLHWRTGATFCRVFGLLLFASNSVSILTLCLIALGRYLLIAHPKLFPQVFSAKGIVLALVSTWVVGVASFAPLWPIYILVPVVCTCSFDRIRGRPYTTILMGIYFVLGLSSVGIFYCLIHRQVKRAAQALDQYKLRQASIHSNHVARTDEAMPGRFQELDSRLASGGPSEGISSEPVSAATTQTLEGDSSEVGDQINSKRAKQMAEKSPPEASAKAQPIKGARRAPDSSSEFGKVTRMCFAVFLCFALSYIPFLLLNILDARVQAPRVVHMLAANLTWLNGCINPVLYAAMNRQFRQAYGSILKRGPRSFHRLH
For `CCCCCCCCC(O)C(=O)O` (stereo not shown) [2-OH—C10], the GPR84 agonist activities is listed as “some GPR84 agonist activities”. For `CCCCCCCCCCC(O)C(=O)O` (stereo not shown) [2-OH—C12], the GPR84 agonist activities is listed as “some GPR84 agonist activities”. In the case of `CCCCCCCC(O)CC(=O)O` (stereo not shown) [3-OH—C10], the GPR84 agonist activities is given as “some GPR84 agonist activities”. For `CCCCCCCCCC(O)CC(=O)O` (stereo not shown) [3-OH—C12], the GPR84 agonist activities is listed as “some GPR84 agonist activities”.

Target: T1, GPR84
Assay: Detection of cytoplasmic calcium ion concentration with Fluo-4 fluorescent dye tracer assay (GPR84 agonist activity)
Type: cell-based
Set-up: expressed in transfected cells; host or cells: HEK293
Conditions: HEK293 cell line transfected with GPR84 and G16; Fluo-4 calcium fluorescence
Description: Detection of Cytoplasmic Calcium Ion Concentration with Fluo-4 Fluorescent Dye Tracer Assay
The GPR84 agonist activity of the compounds of the invention was tested.
The human GPR84 cell line was obtained by transfecting a plasmid encoding the GPR84 and G16 proteins in the HEK293 cell line. The fluorescent dye Fluo-4 AM was purchased from Invitrogen.
Intracellular Ca^2+ ion is a very important second messenger of G protein-coupled receptor signaling pathway. […] Fluo-4 is a Ca^2+ ion-specific fluorescent probe that binds quantitatively to Ca^2+ ions and emits fluorescence. Therefore, fluorescence assay was used to detect the agonistic activity of compounds in 96-well or 384-well flat bottom microplates. The GPR84 cells were incubated with the Fluo-4 fluorescent dye and added with different concentrations of compounds for stimulation. The changes in the intracellular calcium concentration were detected by the fluorescence intensity of dyes.
• 1. […] The pH of the solution was adjusted to 7.4 with hydrochloric acid or NaOH. The solution was filtered, and stored at 4° C. for one month. • 2. Preparation of Ca^2+ buffer: Firstly, a 560 mM D-glucose (100×) stock solution and a 250 mM Sulfinpyrazone (1000×) stock solution were prepared. Then, to 100 mL of HBSS, was added BSA (0.5 g), 560 mM D-glucose stock solution (1 mL) and 250 mM Sulfinpyrazone (100 μL). […] The Ca^2+ buffer was mixed and used as freshly prepared. • 3. Preparation of dyes solution: Firstly, a stock solution of 3% Cremophor EL (100×) in PBS and a stock solution of 2 mM Fluo-4 (1000×) in DMSO was prepared. Secondly, one milliliter of dye solution was prepared by mixing 1 μL of 2 mM Fluo-4 AM with 10 μL of 3% Cremophor EL and diluting with 1 mL of Ca^2+ buffer and mixed. • 4. The GPR84 cells were cultured in a 96-well plate at a starting density of 4×10^4 cells. The cells were continually cultured for more than 24 hours so that the cell density was 80-90% for detection. • 5. The culture fluid was removed from the cells to be tested. The cells were added freshly prepared dyes and incubated in a 37-degree incubator for 40 minutes to 50 minutes. • 6. Preparation of […] solution: Compounds are dissolved and diluted to 3-fold the final working concentration with freshly prepared Ca^2+ buffer. If compounds are dissolved in DMSO, the final DMSO concentration should not exceed 1%. • 7. After the incubation completed, the dye was removed. The cells were washed with Ca^2+ buffer and then incubated with an additional 50 μL of Ca^2+ buffer for 5 to 10 minutes. • 8. The cells were stimulated with 25 μL/well of Ca^2′ buffer containing different concentrations of the compound. The plate was read by using the FlexStation III Multi-Mode Microplate Reader. The changes in the intracellular calcium concentration were detected by the fluorescence intensity of dyes.
Target sequence in this assay (Q9NQS5 whole entry): as the sequence (Q9NQS5 whole entry, species assumed) above
Work on `CCCCCc1nc(O)cc(O)n1` [LY182] yielded an EC50 of 3670 nM. Work on `CC(C)CCCc1nc(O)cc(O)n1` [LY196b] yielded an EC50 of 2100 nM. With `CCCCCCCc1cc(O)cc(O)n1` [LY209] the EC50 was 1.25 nM. `CCCCCCCc1nc(O)cc(O)n1` [LY210-b] showed an EC50 of 12.7 nM. In the case of `C#CCCCSc1nc(O)cc(O)n1` [LY210], the EC50 is reported as 21600 nM. With `Oc1cc(O)nc(SCC2CCC2)n1` [LY212] the EC50 was 43400 nM. With `CCCCCSc1nc(O)cc(O)n1` [LY214-5] the EC50 was 2480 nM. `CCCCCCCCc1cc(O)cc(O)n1` [LY223] gave an EC50 of 1.34 nM. `CCC#CCCSc1nc(O)cc(O)n1` [LY224-a] showed an EC50 of 653 nM. Work on `CCCCCCCCc1nc(O)cc(O)n1` [LY224-b] yielded an EC50 of 11.4 nM. In the case of `CCCCCCCCc1cc(=O)[nH]c(=O)[nH]1` [LY224-c], the EC50 is reported as 811 nM. Work on `CCCCCCCCc1nc(O)nc(O)n1` [LY225-b] yielded an EC50 of 1020 nM. Work on `CC/C=C\CCSc1nc(O)cc(O)n1` [LY226] yielded an EC50 of 924 nM. Work on `CC(C)CCCSc1nc(O)cc(O)n1` [LY228-6b] yielded an EC50 of 641 nM. With `CCCCCCCCCc1cc(O)cc(O)c1` [LY236] the EC50 was 435 nM. Molecule `CCCCCCCC(C)c1nc(O)cc(O)n1` (stereo not shown) [LY238-c] has an EC50 of 299 nM. For `CCCCCCCCCc1cc(O)cc(=O)o1` [LY238-d], the EC50 was 3.51 nM. Work on `CCCCCCCCCc1nc(O)cc(O)n1` [LY238] yielded an EC50 of 48.7 nM. Molecule `CCCCCCCCNc1nc(O)cc(O)n1` [LY239] has an EC50 of 6.14 nM. For `CCCCCCCCc1cc(=O)[nH]c(=S)[nH]1` [LY240], the EC50 was 340 nM. Work on `CCCCCCCSc1nc(O)cc(O)n1` [LY242-7] yielded an EC50 of 231 nM. With `CCCCc1ccc(-c2cc(O)cc(O)n2)cc1` [LY243] the EC50 was 6.1 nM. With `CCc1ccc(CCc2nc(O)cc(O)n2)cc1` [LY244] the EC50 was 88.1 nM. Work on `Oc1cc(O)nc(SCCc2ccccc2)n1` [LY248] yielded an EC50 of 3860 nM. In the case of `CCCCCCCCSc1nc(O)cc(O)n1` [LY256-8], the EC50 is reported as 264 nM. Work on `Oc1cc(O)nc(SCCCc2ccccc2)n1` [LY262-a] yielded an EC50 of 573 nM. Work on `CCc1ccc(CSc2nc(O)cc(O)n2)cc1` [LY262-b] yielded an EC50 of 271 nM. With `O=c1cc(O)nc(SCCc2ccc(F)cc2)[nH]1` [LY266-a] the EC50 was 2940 nM. `Oc1cc(O)nc(SCCc2ccccc2F)n1` [LY266-b] gave an EC50 of 1990 nM. For `Oc1cc(O)nc(SCCc2cccc(F)c2)n1` [LY266-c], the EC50 was 2590 nM. Molecule `Oc1cc(O)nc(SCCCCc2ccccc2)n1` [LY276] has an EC50 of 435 nM. `Oc1cc(O)nc(SCCCCCc2ccccc2)n1` [LY290-a] gave an EC50 of 1080 nM. With `CCCCCCCCCCCCSc1nc(O)cc(O)n1` [LY312-12] the EC50 was 1160 nM. `CCCCCCCCCCCCCCSc1nc(O)cc(O)n1` [LY340-14] showed an EC50 of 25700 nM. In the case of `CCCCCCCCCCCCCCCCSc1nc(O)cc(O)n1` [LY368-16], the EC50 is reported as 11300 nM.

Target: T1, GPR84
Assay: not given
Conditions: CHO-GPR84 cells, cAMP assay; read-out: potencies (GPR84 agonists); cited from earlier work
Target sequence in this assay (Q9NQS5 whole entry, species assumed): as above
For `CCCCCCCCCCCC(=O)O` [lauric acid], the EC50 is listed as 9000 nM.
